In ChEMBL document CHEMBL6103581, “Identification of Thieno[3,2-d]pyrimidine derivatives as potent and selective Janus Kinase 1 inhibitors” (Eur J Med Chem, 2025):
Active and inactive are the calls of the source. The rule behind the calls is not given here.

Tests used:
[1] = tested on: NCI-H1975; test: Induction of apoptosis in human NCI-H1975 cells at 1 to 10 uM incubated for 24 hrs by Annexin V/Propidium iodide staining based analysis; type: functional, cell-based; settings: dose 1-10 µM
[2] = tested on: NCI-H1975; test: Synergistic antiproliferative activity against human NCI-H1975 cells assessed as cell growth inhibition measured after 48 hrs in presence of osimertinib by celltiterglo analysis; type: functional, cell-based
[3] = biological target: Signal transducer and activator of transcription 3 (Homo sapiens) (UniProt P40763); test: Inhibition of STAT3 phosphorylation in human NCI-H2087 cells incubated for 1 hr by Western blot analysis; type: cell-based; settings: dose 1-10 µM
Sequence of Signal transducer and activator of transcription 3 (Homo sapiens) (P40763 whole entry): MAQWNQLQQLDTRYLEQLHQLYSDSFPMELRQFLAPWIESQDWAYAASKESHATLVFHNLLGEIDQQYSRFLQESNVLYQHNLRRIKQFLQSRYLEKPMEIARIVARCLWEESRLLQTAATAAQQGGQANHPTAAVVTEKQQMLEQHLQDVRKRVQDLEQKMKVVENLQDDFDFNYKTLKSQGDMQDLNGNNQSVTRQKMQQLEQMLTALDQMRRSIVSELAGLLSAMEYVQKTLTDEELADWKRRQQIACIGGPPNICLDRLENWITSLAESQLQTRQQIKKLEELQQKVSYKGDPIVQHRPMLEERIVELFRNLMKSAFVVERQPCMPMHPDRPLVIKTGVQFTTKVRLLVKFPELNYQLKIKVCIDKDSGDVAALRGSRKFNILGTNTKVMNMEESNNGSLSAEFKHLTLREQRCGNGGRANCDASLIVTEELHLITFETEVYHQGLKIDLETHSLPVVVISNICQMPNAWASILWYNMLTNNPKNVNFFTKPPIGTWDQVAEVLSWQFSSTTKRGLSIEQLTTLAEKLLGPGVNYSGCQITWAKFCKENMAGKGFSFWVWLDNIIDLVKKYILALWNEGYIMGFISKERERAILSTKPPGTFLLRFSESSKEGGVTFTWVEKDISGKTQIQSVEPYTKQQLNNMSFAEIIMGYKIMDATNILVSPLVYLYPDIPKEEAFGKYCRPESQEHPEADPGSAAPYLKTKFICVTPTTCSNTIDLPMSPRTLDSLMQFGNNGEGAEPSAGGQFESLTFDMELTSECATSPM

[4] = tested on: NCI-H1975; test: Antiproliferative activity against human NCI-H1975 cells assessed as cell growth inhibition incubated for 72 hrs by Cell-TiterGlo assay; type: functional
[5] = biological target: Signal transducer and activator of transcription 3 (Homo sapiens) (UniProt P40763); test: Inhibition of STAT3 phosphorylation in human NCI-H1975 cells incubated for 1 hr by Western blot analysis; type: cell-based; settings: dose 1-10 µM
[6] = biological target: T1, Tyrosine-protein kinase JAK2 (Homo sapiens, UniProt O60674); test: Inhibition of N-terminal GST-tagged human recombinant JAK2 (804 to end residues) extracted from baculovirus infected in Sf9 cells using IGF1Rtide as substrate preincubated for 15 min followed by substrate addition and measured after 1 hr by ADP-Glo kinase assay
T1 sequence (O60674 whole entry): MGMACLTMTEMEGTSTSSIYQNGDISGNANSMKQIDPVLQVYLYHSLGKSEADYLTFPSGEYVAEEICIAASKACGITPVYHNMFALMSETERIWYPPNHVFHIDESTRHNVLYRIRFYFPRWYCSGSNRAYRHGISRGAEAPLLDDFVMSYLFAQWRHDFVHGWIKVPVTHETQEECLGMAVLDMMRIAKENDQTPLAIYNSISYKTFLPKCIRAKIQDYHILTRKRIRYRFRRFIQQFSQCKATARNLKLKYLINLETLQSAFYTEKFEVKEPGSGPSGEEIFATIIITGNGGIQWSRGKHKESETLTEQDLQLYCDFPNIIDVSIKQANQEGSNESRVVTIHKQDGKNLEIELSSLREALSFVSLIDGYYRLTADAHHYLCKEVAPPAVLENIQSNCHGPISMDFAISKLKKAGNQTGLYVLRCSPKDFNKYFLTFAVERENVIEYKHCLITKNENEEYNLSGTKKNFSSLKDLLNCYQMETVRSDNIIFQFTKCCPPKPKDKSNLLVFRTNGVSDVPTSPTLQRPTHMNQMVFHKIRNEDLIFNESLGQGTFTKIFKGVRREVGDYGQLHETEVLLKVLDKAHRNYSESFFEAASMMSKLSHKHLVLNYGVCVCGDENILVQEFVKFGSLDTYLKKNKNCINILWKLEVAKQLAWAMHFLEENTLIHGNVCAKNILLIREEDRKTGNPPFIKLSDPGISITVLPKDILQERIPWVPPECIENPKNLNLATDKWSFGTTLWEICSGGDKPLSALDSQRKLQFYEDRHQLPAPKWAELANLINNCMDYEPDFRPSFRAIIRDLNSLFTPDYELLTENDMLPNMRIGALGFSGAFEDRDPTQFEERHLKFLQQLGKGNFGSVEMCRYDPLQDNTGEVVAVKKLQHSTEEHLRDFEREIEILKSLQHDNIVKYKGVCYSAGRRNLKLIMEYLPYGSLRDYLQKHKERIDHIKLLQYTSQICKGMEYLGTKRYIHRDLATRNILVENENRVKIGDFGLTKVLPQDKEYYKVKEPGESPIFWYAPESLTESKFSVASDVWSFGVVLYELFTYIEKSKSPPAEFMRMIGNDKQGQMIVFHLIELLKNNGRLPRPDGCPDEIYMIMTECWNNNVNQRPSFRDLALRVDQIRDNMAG

[7] = tested on: NCI-H2087; test: Induction of cell cycle arrest in human NCI-H2087 cells assessed as accumulation of cells at G2/M phase at 1 to 10 uM incubated for 24 hrs by propidium iodide/RNase staining based analysis; type: functional; settings: dose 1-10 µM
[8] = biological target: T2, Tyrosine-protein kinase JAK3 (Homo sapiens, UniProt P52333); test: Inhibition of N-terminal GST-tagged human recombinant JAK3 (781 to end residues) extracted from baculovirus infected in Sf9 cells using Poly(4:1 Glu, Tyr) as substrate preincubated for 15 min followed by substrate addition and measured after 1 hr by ADP-Glo kinase assay
T2 sequence (P52333 whole entry): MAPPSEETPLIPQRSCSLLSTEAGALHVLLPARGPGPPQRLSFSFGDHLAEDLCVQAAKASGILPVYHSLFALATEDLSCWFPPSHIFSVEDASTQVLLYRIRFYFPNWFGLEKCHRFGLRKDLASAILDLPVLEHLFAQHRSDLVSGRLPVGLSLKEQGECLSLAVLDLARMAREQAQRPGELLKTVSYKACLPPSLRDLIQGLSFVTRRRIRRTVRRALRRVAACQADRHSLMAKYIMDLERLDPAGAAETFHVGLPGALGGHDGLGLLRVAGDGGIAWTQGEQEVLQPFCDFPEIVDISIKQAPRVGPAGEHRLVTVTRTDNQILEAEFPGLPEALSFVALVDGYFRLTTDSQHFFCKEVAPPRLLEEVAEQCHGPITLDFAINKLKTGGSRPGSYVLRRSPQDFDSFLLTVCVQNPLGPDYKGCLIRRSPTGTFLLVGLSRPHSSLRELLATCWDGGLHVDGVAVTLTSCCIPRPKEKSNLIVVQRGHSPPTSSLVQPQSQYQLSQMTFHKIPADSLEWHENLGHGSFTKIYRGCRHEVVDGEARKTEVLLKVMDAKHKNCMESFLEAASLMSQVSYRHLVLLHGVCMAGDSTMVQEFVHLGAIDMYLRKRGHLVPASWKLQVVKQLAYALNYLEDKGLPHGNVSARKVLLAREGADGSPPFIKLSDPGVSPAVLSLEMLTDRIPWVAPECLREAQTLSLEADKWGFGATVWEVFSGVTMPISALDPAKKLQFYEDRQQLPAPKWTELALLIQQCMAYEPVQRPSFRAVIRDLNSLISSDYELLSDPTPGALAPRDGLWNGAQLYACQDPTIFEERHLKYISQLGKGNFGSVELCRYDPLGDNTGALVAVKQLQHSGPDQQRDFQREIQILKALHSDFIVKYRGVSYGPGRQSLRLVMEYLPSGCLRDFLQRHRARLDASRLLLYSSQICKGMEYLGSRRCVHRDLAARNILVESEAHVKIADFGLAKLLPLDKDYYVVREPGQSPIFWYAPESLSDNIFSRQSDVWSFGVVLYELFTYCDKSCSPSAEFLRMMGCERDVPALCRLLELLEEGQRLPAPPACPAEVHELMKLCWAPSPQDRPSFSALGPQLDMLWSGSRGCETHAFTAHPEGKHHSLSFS

[9] = tested on: NCI-H1975; test: Induction of cell cycle arrest in human NCI-H1975 cells assessed as accumulation of cells at G2/M phase at 1 to 10 uM incubated for 24 hrs by propidium iodide/RNase staining based analysis; type: functional; settings: dose 1-10 µM
[10] = tested on: BaF3; test: Antiproliferative activity against mouse parental BaF3 cells assessed as cell growth inhibition incubated for 72 hrs by Cell-TiterGlo assay; type: functional
[11] = tested on: NCI-H1975; test: Inhibition of colony formation in human NCI-H1975 cells at 10 uM incubated for 14 days by crystal violet staining based 2D colony formation assay relative to control; type: functional; settings: NCI-H1975, 336 h, time 14 day
[12] = tested on: NCI-H2087; test: Inhibition of colony formation in human NCI-H2087 cells at 10 uM incubated for 14 days by crystal violet staining based 2D colony formation assay relative to control; type: functional; settings: NCI-H2087, 336 h, time 14 day
[13] = Antiproliferative activity against mouse Ba/F3-TEL-JAK1 cells assessed as cell growth inhibition incubated for 72 hrs by Cell-TiterGlo assay; type: functional
[14] = tested on: NCI-H2087; test: Antiproliferative activity against human NCI-H2087 cells assessed as cell growth inhibition incubated for 72 hrs by Cell-TiterGlo assay; type: functional
[15] = tested on: NCI-H2087; test: Induction of apoptosis in human NCI-H2087 cells at 1 to 10 uM incubated for 24 hrs by Annexin V/Propidium iodide staining based analysis; type: functional, cell-based; settings: dose 1-10 µM
[16] = tested on: NCI-H1975; test: Inhibition of colony formation in human NCI-H1975 cells at 10 uM incubated for 14 days by crystal violet staining based 2D colony formation assay; type: functional, cell-based; settings: time 14.0 day
[17] = tested on: NCI-H2087; test: Inhibition of colony formation in human NCI-H2087 cells at 10 uM incubated for 14 days by crystal violet staining based 2D colony formation assay; type: functional, cell-based; settings: time 14.0 day
[18] = biological target: Tyrosine-protein kinase JAK1 (Homo sapiens, UniProt P23458); test: Inhibition of N-terminal GST-tagged human recombinant JAK1 (438 to end residues) extracted from baculovirus infected in Sf9 cells using KKHTDDGYMPMSPGVA as substrate preincubated for 15 min followed by substrate addition and measured after 1 hr by ADP-Glo kinase assay
[19] = biological target: Non-receptor tyrosine-protein kinase TYK2 (Homo sapiens) (UniProt P29597); test: Inhibition of human TYK2 at 0.1 uM preincubated for 20 min followed by 33P-ATP addition measured after 2 hrs by P81 filter-binding method relative to control; settings: time 140.0 min
Sequence of Non-receptor tyrosine-protein kinase TYK2 (Homo sapiens) (P29597 whole entry): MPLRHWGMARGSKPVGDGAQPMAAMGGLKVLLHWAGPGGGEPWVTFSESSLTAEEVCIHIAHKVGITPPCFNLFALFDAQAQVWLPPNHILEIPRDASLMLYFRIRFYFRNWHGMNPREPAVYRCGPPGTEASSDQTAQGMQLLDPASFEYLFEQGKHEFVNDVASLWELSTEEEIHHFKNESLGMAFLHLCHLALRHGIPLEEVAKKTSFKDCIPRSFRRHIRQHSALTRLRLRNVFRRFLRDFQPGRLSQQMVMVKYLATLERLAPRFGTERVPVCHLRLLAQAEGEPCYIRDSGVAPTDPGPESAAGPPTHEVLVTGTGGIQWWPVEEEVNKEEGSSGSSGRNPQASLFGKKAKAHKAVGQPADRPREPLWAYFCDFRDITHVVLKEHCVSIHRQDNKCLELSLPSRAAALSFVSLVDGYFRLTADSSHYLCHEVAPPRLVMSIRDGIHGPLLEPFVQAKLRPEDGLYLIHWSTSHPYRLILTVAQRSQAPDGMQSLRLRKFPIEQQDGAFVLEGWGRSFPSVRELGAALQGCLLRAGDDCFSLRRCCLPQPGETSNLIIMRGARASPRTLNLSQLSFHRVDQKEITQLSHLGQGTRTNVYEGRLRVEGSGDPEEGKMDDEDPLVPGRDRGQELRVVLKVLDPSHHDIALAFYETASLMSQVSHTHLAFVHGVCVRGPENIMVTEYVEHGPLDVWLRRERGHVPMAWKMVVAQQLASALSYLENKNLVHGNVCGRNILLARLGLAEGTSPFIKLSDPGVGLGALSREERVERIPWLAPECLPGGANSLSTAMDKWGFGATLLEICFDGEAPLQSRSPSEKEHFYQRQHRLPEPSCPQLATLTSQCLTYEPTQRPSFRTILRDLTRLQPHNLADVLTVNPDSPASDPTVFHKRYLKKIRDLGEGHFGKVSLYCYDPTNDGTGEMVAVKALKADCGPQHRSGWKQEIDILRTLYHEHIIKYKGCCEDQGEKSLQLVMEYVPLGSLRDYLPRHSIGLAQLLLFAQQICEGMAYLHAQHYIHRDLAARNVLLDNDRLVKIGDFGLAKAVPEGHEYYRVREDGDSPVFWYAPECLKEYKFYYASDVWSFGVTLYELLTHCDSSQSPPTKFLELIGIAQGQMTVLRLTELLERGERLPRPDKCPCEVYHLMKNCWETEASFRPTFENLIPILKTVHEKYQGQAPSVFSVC

[20] = tested on: HCT-116; test: Antiproliferative activity against human HCT-116 cells overexpressing JAK1 assessed as suppression of cell growth incubated for 72 hrs by Cell-TiterGlo assay; type: functional, cell-based
[21] = biological target: T1, Tyrosine-protein kinase JAK2; test: Inhibition of human JAK2 at 0.1 uM preincubated for 20 min followed by 33P-ATP addition measured after 2 hrs by P81 filter-binding method relative to control; settings: time 140.0 min
[22] = tested on: NCI-H1975; test: Upregulation of STAT3 phosphorylation level in human NCI-H1975 cells; type: functional, cell-based
[23] = biological target: Receptor-type tyrosine-protein kinase FLT3 (Homo sapiens) (UniProt P36888); test: Inhibition of human FLT3 at 0.1 uM preincubated for 20 min followed by 33P-ATP addition measured after 2 hrs by P81 filter-binding method relative to control; settings: time 140.0 min
Sequence of Receptor-type tyrosine-protein kinase FLT3 (Homo sapiens) (P36888 whole entry): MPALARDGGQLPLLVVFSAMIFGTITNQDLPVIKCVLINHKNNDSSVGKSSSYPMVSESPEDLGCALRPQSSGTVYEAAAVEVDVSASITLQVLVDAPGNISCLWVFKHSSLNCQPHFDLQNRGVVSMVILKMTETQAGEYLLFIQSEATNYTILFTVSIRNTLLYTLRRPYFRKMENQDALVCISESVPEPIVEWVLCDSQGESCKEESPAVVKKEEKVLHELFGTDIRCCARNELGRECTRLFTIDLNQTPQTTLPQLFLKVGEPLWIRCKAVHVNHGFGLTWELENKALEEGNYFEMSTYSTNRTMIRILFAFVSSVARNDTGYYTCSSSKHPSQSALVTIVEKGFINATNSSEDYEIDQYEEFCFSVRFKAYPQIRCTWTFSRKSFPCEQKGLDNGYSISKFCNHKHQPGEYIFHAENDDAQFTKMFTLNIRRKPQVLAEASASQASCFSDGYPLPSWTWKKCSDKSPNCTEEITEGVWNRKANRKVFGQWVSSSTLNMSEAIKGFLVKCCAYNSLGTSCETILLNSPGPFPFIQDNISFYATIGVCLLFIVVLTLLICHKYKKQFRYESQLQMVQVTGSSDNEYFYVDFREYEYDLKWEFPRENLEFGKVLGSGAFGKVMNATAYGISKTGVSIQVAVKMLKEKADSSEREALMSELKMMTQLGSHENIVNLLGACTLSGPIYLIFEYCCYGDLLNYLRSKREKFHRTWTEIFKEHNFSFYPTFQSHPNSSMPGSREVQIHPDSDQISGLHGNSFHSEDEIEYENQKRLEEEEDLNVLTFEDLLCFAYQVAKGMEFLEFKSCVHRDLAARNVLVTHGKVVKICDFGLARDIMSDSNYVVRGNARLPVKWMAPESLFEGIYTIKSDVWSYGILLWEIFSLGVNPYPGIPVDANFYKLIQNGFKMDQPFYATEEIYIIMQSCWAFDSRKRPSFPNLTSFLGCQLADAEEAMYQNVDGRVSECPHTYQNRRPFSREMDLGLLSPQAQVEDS

[24] = tested on: NCI-H2087; test: Antiproliferative activity against human NCI-H2087 cells overexpressing JAK1 assessed as suppression of cell growth incubated for 72 hrs by Cell-TiterGlo assay; type: functional, cell-based
[25] = biological target: T3, Aurora kinase C (Homo sapiens) (UniProt Q9UQB9); test: Inhibition of human Aurora C at 0.1 uM preincubated for 20 min followed by 33P-ATP addition measured after 2 hrs by P81 filter-binding method relative to control; settings: time 140.0 min
T3 sequence (whole entry): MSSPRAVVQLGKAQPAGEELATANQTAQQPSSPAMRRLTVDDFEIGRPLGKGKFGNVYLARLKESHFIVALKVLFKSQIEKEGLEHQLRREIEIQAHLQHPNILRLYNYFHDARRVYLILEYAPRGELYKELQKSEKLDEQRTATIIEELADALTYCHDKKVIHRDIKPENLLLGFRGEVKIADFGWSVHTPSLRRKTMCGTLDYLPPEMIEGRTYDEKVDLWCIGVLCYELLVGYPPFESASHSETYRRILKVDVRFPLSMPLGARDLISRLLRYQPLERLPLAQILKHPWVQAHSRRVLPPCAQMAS

[26] = tested on: NCI-H2087; test: Upregulation of STAT3 phosphorylation level in human NCI-H2087 cells; type: functional, cell-based
[27] = tested on: HT-29; test: Antiproliferative activity against human HT-29 cells overexpressing JAK1 assessed as suppression of cell growth incubated for 72 hrs by Cell-TiterGlo assay; type: functional, cell-based
[28] = tested on: U2OS; test: Antiproliferative activity against human U2OS cells overexpressing JAK1 assessed as suppression of cell growth incubated for 72 hrs by Cell-TiterGlo assay; type: functional, cell-based
[29] = biological target: T4, Tyrosine-protein kinase JAK3 (Homo sapiens) (UniProt P52333); test: Inhibition of human JAK3 at 0.1 uM preincubated for 20 min followed by 33P-ATP addition measured after 2 hrs by P81 filter-binding method relative to control; settings: time 140.0 min
T4 sequence (whole entry): T2 sequence (P52333 whole entry)

[30] = tested on: NCI-H1975; test: Antiproliferative activity against human NCI-H1975 cells overexpressing JAK1 assessed as suppression of cell growth incubated for 72 hrs by Cell-TiterGlo assay; type: functional, cell-based
[31] = tested on: UMUC3; test: Antiproliferative activity against human UMUC3 cells overexpressing JAK1 assessed as suppression of cell growth incubated for 72 hrs by Cell-TiterGlo assay; type: functional, cell-based

COc1nn(C)cc1Nc1ncc2scc(-c3cccc(NC(=O)[C@@H](C)N4CCN(CCO)CC4)c3)c2n1
Activity [1]: Active
Activity [2]: Active
inhibition [3]: Dose-dependent-effect
GI50 [4]: 6670 nM
inhibition [5]: Dose-dependent-effect
IC50 [6]: 759 nM
Activity [7]: Active
IC50 [8]: 1600 nM
Activity [9]: Active
GI50 [10]: 614 nM
inhibition at 10 µM [11]: 100%
inhibition at 10 µM [12]: 100%
GI50 [13]: 193 nM
GI50 [14]: 5960 nM
Activity [15]: Active

COc1nn(C)cc1Nc1nccc(-c2c[nH]c3c(NC(=O)[C@@H](C)N4CCN(C)CC4)cccc23)n1 [GOLIDOCITINIB]
inhibition [16]: Active
Activity [1]: Active
Activity [2]: Active
GI50 [4]: 36700 nM
IC50 [6]: 613 nM
Activity [7]: Active
IC50 [8]: 1920 nM
inhibition [17]: Active
Activity [9]: Active
GI50 [10]: 3670 nM
GI50 [13]: 514 nM
GI50 [14]: 40200 nM
IC50 [18]: 82 nM
Activity [15]: Active

COc1nn(C)cc1Nc1ncc2scc(-c3cccc(NC(=O)[C@@H](C)N4CCN(C)CC4)c3)c2n1
Activity [1]: Active
inhibition [19]: 18.1%
Activity [2]: Active
inhibition [3]: Dose-dependent-effect
GI50 [4]: 2460 nM
Activity [20]: Active
inhibition [5]: Dose-dependent-effect
IC50 [6]: 3580 nM
inhibition [21]: 61.8%
Activity [22]: Active
inhibition [23]: 82.5%
Activity [24]: Active
inhibition [25]: 83.7%
Activity [7]: Active
IC50 [8]: 4030 nM
Activity [26]: Active
Activity [27]: Active
Activity [28]: Active
inhibition [29]: 15.5%
Activity [9]: Active
GI50 [10]: 1450 nM
inhibition at 10 µM [11]: 100%
inhibition at 10 µM [12]: 100%
GI50 [13]: 447 nM
Activity [30]: Active
Activity [31]: Active
GI50 [14]: 6810 nM
Activity [15]: Active

COc1nn(C)cc1Nc1ncc2scc(-c3cccc(NC(C)=O)c3)c2n1
GI50 [4]: > 50000 nM
IC50 [6]: 295 nM
IC50 [8]: 50 nM
GI50 [10]: 4160 nM
GI50 [13]: 331 nM
GI50 [14]: > 44000 nM

Cc1nn(C)cc1Nc1ncc2scc(-c3cccc(NC(=O)[C@@H](C)N4CCN(C)CC4)c3)c2n1
inhibition [16]: Active
Activity [1]: Active
Activity [2]: Active
inhibition [3]: Dose-dependent-effect
GI50 [4]: 3190 nM
Activity [20]: Active
inhibition [5]: Dose-dependent-effect
IC50 [6]: 2750 nM
Activity [22]: Active
Activity [24]: Active
Activity [7]: Active
IC50 [8]: 4900 nM
Activity [26]: Active
inhibition [17]: Active
Activity [27]: Active
Activity [28]: Active
Activity [9]: Active
GI50 [10]: 2910 nM
GI50 [13]: 450 nM
Activity [30]: Active
Activity [31]: Active
GI50 [14]: 5650 nM
Activity [15]: Active

COc1nn(C)cc1Nc1ncc2scc(-c3cccc(N)c3)c2n1
GI50 [4]: 4490 nM
IC50 [6]: 154 nM
IC50 [8]: 68 nM
GI50 [10]: 1010 nM
GI50 [13]: 313 nM
GI50 [14]: 4600 nM
